From the NIST ThermoML archive (doi:10.1021/je034243t)
± gives the expanded uncertainty stated by the source.

Assay: xn = mol fraction of the nth substance listed
Conditions: 291.15 K, Liquid, Vibrating tube method

O=C=O [carbon dioxide] + CCO
Conditions | mass density [kg/m3]
x1 = 0.184 | 819.5 ± 0.4
x1 = 0.227 | 826.4 ± 0.4
x1 = 0.304 | 836.8 ± 0.4
x1 = 0.455 | 855.1 ± 0.3
x1 = 0.728 | 865.9 ± 0.3
x1 = 0.838 | 856.5 ± 0.5
x1 = 0.951 | 828 ± 0.7
x1 = 0.983 | 811.3 ± 1.2
x1 = 0.996 | 800.6 ± 1.7
